Tests used:
[1] = cited from earlier work; for Cave,ss, reported clinical concentration: patients, efficacious dose
[2] = test system: P-gp; settings: cited from earlier work
[3] = target: mouse P-gp (Mus musculus, UniProt P21447); type: in vitro ADME; settings: LLC-PK1
[4] = test system: breast cancer resistance protein (BCRP); settings: cited from earlier work
[5] = test system: TRKA/B/C; settings: read-out: IC50 against TRKA/B/C; cited from earlier work
[6] = Brain distribution study following i.v. bolus and i.v. infusion in rats; settings: rat; for δ brain concentration at SS / δ plasma concentration at SS: difference between the two time points, (SD)
[7] = rat plasma; from FDA pharmacology reviews; cited from earlier work
[8] = target: human P-gp (Homo sapiens, UniProt P08183); type: in vitro ADME; settings: LLC-PK1
Chain of human P-gp (P08183 whole entry): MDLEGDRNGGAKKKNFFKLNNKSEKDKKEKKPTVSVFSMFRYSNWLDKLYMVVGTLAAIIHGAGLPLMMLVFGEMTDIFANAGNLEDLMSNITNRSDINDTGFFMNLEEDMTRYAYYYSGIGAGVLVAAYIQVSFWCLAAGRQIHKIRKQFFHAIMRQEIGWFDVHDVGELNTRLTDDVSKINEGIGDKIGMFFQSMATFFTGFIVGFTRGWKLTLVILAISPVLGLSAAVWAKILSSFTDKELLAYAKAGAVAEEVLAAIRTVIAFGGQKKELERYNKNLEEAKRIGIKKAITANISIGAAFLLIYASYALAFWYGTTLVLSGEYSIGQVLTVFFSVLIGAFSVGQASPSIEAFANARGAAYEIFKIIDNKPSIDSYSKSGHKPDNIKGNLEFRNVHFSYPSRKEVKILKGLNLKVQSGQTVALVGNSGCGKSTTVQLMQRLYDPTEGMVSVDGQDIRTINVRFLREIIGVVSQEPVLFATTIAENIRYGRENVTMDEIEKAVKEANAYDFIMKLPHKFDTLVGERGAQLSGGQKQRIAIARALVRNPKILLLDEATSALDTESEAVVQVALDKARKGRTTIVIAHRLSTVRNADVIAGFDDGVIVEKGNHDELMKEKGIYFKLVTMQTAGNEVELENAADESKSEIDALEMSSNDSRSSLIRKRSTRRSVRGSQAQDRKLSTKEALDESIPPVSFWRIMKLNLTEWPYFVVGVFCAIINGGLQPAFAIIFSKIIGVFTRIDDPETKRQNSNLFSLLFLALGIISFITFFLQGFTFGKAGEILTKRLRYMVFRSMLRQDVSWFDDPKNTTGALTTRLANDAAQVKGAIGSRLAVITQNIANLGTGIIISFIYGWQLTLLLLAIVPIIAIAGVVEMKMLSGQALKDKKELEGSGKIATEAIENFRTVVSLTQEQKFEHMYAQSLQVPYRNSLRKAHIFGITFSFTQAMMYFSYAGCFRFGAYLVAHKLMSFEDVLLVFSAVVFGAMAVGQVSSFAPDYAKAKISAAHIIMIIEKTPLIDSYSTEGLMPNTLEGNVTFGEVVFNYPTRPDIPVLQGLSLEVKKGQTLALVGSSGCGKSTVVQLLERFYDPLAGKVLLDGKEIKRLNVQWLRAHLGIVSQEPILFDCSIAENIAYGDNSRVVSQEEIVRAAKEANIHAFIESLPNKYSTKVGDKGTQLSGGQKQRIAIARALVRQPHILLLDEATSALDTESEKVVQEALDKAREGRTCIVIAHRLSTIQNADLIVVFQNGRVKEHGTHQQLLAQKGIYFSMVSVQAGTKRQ

[9] = Kinetic lipid membrane binding assay; type: in vitro ADME, porcine; settings: pig, pH 7.4
[10] = Plasma protein binding by equilibrium dialysis, human plasma; type: in vitro ADME; settings: pH 7.5
[11] = test system: BNN2 and BNN4 gliomas; settings: clinically relevant systemic exposures; cited from earlier work
[12] = Plasma protein binding, rat plasma; type: in vitro ADME; settings: pH 7.5
[13] = Plasma pharmacokinetics in KM12-Luc ITC tumor-bearing mice; type: in vivo, Balb/c nude mice; settings: for AUC(0-t): Balb/c nude, mouse, in vivo, po
[14] = Plasma protein binding by equilibrium dialysis, mouse plasma; type: in vitro ADME; settings: pH 7.5
[15] = test system: KM12-Luc intracranial tumor; assay: Efficacy in KM12-Luc intracranial tumor xenograft mouse model; type: in vivo, athymic nu/nu mice; settings: 28 days
[16] = Single oral-dose in vivo PK study of rats; settings: rat
[17] = recommended human oral dose of 600 mg/kg q.d.

Chain of mouse P-gp (P21447 whole entry): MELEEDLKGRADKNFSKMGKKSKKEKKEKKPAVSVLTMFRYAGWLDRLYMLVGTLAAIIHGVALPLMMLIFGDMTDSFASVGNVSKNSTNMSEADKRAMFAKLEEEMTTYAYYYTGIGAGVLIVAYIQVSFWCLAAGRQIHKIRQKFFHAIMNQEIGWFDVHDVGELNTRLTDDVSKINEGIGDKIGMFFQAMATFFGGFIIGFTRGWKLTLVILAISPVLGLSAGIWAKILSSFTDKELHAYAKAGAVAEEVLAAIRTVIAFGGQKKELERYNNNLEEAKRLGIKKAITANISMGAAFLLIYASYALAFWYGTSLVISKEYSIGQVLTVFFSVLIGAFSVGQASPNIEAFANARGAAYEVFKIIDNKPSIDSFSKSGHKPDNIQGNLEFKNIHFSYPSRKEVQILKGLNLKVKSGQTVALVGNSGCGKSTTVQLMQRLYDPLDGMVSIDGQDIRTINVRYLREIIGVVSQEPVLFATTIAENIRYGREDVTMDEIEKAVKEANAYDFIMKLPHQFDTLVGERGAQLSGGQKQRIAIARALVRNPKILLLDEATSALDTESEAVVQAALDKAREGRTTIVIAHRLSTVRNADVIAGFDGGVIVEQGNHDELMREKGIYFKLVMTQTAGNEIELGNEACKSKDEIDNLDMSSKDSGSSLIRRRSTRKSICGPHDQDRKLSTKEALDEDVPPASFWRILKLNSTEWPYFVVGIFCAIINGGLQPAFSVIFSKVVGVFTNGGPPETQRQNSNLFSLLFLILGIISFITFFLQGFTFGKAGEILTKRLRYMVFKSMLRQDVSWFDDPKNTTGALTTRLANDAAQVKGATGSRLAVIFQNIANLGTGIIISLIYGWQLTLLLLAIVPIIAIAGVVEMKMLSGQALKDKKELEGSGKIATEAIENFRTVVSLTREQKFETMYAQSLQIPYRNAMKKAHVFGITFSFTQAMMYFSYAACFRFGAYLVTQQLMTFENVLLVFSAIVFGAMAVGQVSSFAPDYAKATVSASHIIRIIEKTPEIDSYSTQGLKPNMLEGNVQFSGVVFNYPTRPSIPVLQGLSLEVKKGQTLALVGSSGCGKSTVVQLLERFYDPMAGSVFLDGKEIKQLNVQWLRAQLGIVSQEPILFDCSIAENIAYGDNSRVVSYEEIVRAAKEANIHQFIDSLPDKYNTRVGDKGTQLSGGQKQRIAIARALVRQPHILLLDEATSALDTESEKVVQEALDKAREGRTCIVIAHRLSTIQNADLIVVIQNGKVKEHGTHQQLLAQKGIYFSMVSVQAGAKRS

## O=C(Nc1cnn2ccc(N3CCC[C@@H]3c3cc(F)ccc3F)nc12)N1CC[C@H](O)C1 [Larotrectinib, larotrectinib]
[1]
  Cave,ss, reported clinical concentration: 423 nM
[2]
  known substrate for P-gp: known substrates for P-gp
[3]
  Papp A→B at 3.5 h, 1 µM: 0.82 ± 0.07 ×10⁻⁶ cm/s
  Papp B→A at 3.5 h, 1 µM: 16.1 ± 0.7 ×10⁻⁶ cm/s
  efflux ratio at 3.5 h, 1 µM: 20
[4]
  substrate of breast cancer resistance protein (BCRP): substrate
[5]
  IC50: 5 to 11 nM
[6]; male, Sprague Dawley, in vivo
  Kp at 4 h: 0.027
  Kp at 5 h: 0.031
[6]
  δ brain concentration at SS: 1.6 (3.74–5.60) nM
  δ plasma concentration at SS: 2 (46.3–82.2) nM
[7]
  Fu in plasma: 0.349
[8]
  Papp A→B at 3.5 h, 1 µM: 1.85 ×10⁻⁶ cm/s
  Papp B→A at 3.5 h, 1 µM: 18.2 ± 3.7 ×10⁻⁶ cm/s
  efflux ratio at 3.5 h, 1 µM: 10
[9]
  half-life at 10 µM: 6.2 min

## C[C@@H](Oc1cc(-c2cnn(C3CCNCC3)c2)cnc1N)c1c(Cl)ccc(F)c1Cl [Crizotinib, crizotinib]
[1]
  Cave,ss, reported clinical concentration: 874 nM
[2]
  known substrate for P-gp: known substrates for P-gp
[3]
  Papp A→B at 3.5 h, 1 µM: 1.2 ± 0.15 ×10⁻⁶ cm/s
  Papp B→A at 3.5 h, 1 µM: 34.4 ± 1.68 ×10⁻⁶ cm/s
[6]; male, Sprague Dawley, in vivo
  Kp at 5 h: 0.041
  Kp at 6 h: 0.028
[6]
  δ brain concentration at SS: 87 (12.1–131) nM
  δ plasma concentration at SS: 12 (47.9–53.7) nM
[7]
  Fu in plasma: 0.057
[8]
  Papp A→B at 3.5 h, 1 µM: 1.38 ± 0.03 ×10⁻⁶ cm/s
  Papp B→A at 3.5 h, 1 µM: 38.8 ± 1.7 ×10⁻⁶ cm/s
[9]
  half-life at 10 µM: 7.4 min

## CN1CCN(c2ccc(C(=O)Nc3n[nH]c4ccc(Cc5cc(F)cc(F)c5)cc34)c(NC3CCOCC3)c2)CC1 [Entrectinib, entrectinib]
[10]
  fraction unbound at 5 h: 0.0022 ± 0.0005
[11]
  antitumor effect in intracranial NTRK1 fusion-positive glioma model: tumor growth inhibition and full survival benefit
[12]
  fraction unbound at 5 h: 0.0032 ± 0.0009
[1]
  Cave,ss, reported clinical concentration: 2000 nM
[1]; [17]
  AUC24h at SS in patients: 48 µM·h
  estimated average plasma concentration in patients: approximately 2.0 µM
[13]; 2 mg/kg/day
  AUC(0-t): 1.3 µM·h
[13]; 10 mg/kg/day
  AUC(0-t): 11.3 µM·h
[13]; 30 mg/kg
  AUC(0-t): 24.5 to 54.8 µM·h
[13]; 30 mg/kg/day
  AUC(0-t): 38.3 µM·h
[13]; 60 mg/kg/day
  AUC(0-t): 45.3 µM·h
[13]; 120 mg/kg/day
  AUC(0-t): 99.9 µM·h
[13]; oral, daily dose of 30 mg/kg
  average plasma concentration (AUC24h/24 hours): ~ 1.6 µM
[3]
  Papp A→B at 3.5 h, 1 µM: 0.99 ± 0.04 ×10⁻⁶ cm/s
  Papp B→A at 3.5 h, 1 µM: 25.5 ± 1.9 ×10⁻⁶ cm/s
[14]
  fraction unbound at 5 h: 0.0034 ± 0.0003
[15]; 1 mg/kg b.i.d. oral
  Survival through day 28: 0%
[15]; 5 mg/kg b.i.d. oral
  Survival through day 28: 11%
[15]; 10 mg/kg q.d. oral
  Survival through day 28: 67%
[15]; 15 mg/kg b.i.d. oral
  Survival through day 28: 100%
[15]; 30 mg/kg q.d. oral
  Survival through day 28: 100%
[15]; 60 mg/kg b.i.d. oral
  Survival through day 28: 100%
[15]; all dose levels tested (1, 5, 15, 60 mg/kg b.i.d.; 10, 30 mg/kg q.d.)
  Tolerability: well tolerated
[6]; male, Sprague Dawley, in vivo, Measured CSF/Cu,p ratio, 5 h
  Kp at 5 h: 0.25
[6]; male, Sprague Dawley, in vivo, Measured CSF/Cu,p ratio, 6 h
  Kp at 6 h: 0.18
[6]
  δ brain concentration at SS: 276 (71.2–186) nM
  δ plasma concentration at SS: 140 (109–430) nM
[6]; listed as entrectinib
  δ brain concentration at SS: 276 nM
  δ plasma concentration at SS: 140 nM
[16]; brain / plasma, po, 20 mg/kg
  Kp: 0.185
[16]; single oral dose 20 mg/kg, inferior to the LLOQ, data not shown
  concentration in the CSF: < 1 nM
[8]
  Papp A→B at 3.5 h, 1 µM: 1.35 ± 0.34 ×10⁻⁶ cm/s
  Papp B→A at 3.5 h, 1 µM: 19.7 ± 0.5 ×10⁻⁶ cm/s
[9]
  half-life at 10 µM: 9.6 min

## C[C@H]1O[C@@H](O[C@H]2[C@@H](O)C[C@H](O[C@H]3[C@@H](O)C[C@H](O[C@H]4CC[C@@]5(C)[C@H](CC[C@@H]6[C@@H]5C[C@@H](O)[C@]5(C)[C@@H](C7=CC(=O)OC7)CC[C@]65O)C4)O[C@@H]3C)O[C@@H]2C)C[C@H](O)[C@@H]1O [Digoxin, digoxin]
[3]
  Papp A→B at 3.5 h, 1 µM: 1.22 ± 0.1 ×10⁻⁶ cm/s
  Papp B→A at 3.5 h, 1 µM: 12.5 ± 0.28 ×10⁻⁶ cm/s
  efflux ratio at 3.5 h, 1 µM: 10
[8]
  Papp B→A at 3.5 h, 1 µM: 12.1 ± 0.73 ×10⁻⁶ cm/s
  efflux ratio at 3.5 h, 1 µM: 11

Source: PMC7283026 (Neuro-Oncology, 2020)
